Several values for one entry are separate records, joined by “and”; a condition that tells them apart may be missing. Equal values may be shown once.
Key:
active caspase-9 = experiment: Protein level of active caspase-9 in M109 cells (western blotting); type: cell-based, mouse; settings: 1 μM
Procedure: FIG. 14. Effect of Dp44mT (1 μM) on the (A,B) protein levels of active caspase-3, -8 and -9, and (C,D) the activity of caspase-3, -8 and -9 in cultured M109 cells in the absence (C) and presence (D) of cell-permeable caspase inhibitors. (A) Caspase-3, -8, and -9 levels after Dp44mT treatment at indicated times as detected by western blotting (upper panel). The anti-β-actin antibody was used to ensure equal protein loading (lower panel). (B) Densitometric analysis of the expression of caspase-3, -8, and -9 as a function of time normalized to β-actin (C) Caspase activity induced by Dp44mT (1 μM) at 0-48 h was expressed as a percentage of the 0 h time value. (D) Cell-permeable inhibitors of caspase-3, -8 or -9 at 1 μM prevented activation of these enzymes when incubated with Dp44mT (1 μM) for 48 h. Results are mean±SEM of three separate experiments.
Rabbit anti-active caspase-3 antibody, rabbit anti-active caspase-8 antibody and Annexin V fluorescein isothiocyanate (FITC) were from BD PharMingen (San Diego, Calif., USA). Anti-h-cytc MoAb was from R&D Systems Minneapolis, Minn., USA). Rabbit anti-active caspase-9 antibody, mouse anti-Bcl-2 and mouse anti-Bax antibodies were obtained from Santa Cruz (Santa Cruz, Calif., USA). Mouse anti-mouse β-actin antibody, horseradish peroxidase-conjugated antirabbit, and anti-mouse IgG were from Sigma Chemical Co. (St. Louis, Mo., USA).
To determine the role of caspase activation in Dp44mT-induced apoptosis in M109 cells, protein levels of active caspase-3, -8 and -9 (FIG. 14A,B) and their enzymatic activity (FIG. 14C,D) were examined.

[1] = Maximum tolerated dose in CD2F1 hybrid mice; type: in vivo; settings: CD2F1 mice, iv twice a day
Procedure: BALB/c and DBA/2 mice were obtained from Animal Resources Centre (University of New South Wales (UNSW), Sydney, Australia) and crossed to produce CD2F1 animals (all procedures used were approved by the Animal Ethics Committee, UNSW). Groups of eight female CD2F1 mice (8-10 weeks old) were fed and watered ad-libitum, and injected via the tail vein with compounds being studied in 30% propylene glycol in 0.9% sterile saline, twice a day, 6 h apart, 5 days/week for 2 weeks. The maximum tolerated dose (MTD) was defined as the dose at which 30% of a cohort either died or lost weight in excess of 10%.^19

caspase-8 = experiment: Caspase-8 activity in M109 cells (BD Apolert Caspase Assay Plate); type: cell-based, mouse; settings: 1 μM
Procedure: Cultured M109 cells were treated with or without Dp44mT (1 μM) for 0-48 h at 37° C. Cells were lysed^27 and caspase activities were determined using the BD Apolert™ Caspase Assay Plate (BD Biosciences, San Diego, Calif., USA). Cell-permeable pan-caspase-3, -8, and -9 inhibitors (BD Biosciences) were included as inhibitory controls.

M109 lung carcinoma = experiment: Inhibition of M109 lung carcinoma growth in vivo; parameters: species or system mouse; settings: 0.4 mg/kg iv twice daily for 5 days, day 12
Procedure: Inhibition of M109 Lung Cancer Cell Growth by Iron Chelators In Vivo Female CD2F1 mice aged 8-10 weeks old were sc implanted with 1×10^5 M109 cells. The tumour cells were passaged in CD2F1 mice by preparing a brei from the tumour and injecting it sc.^20 Dp44mT was dissolved in 30% (v/v) propylene glycol in saline and injected iv 4 days after tumour engraftment, twice daily for 5 days followed by a “rest period” of 2 days when the animal was not injected. On the twelfth day after tumour implantation, mice were sacrificed using methoxyfluorane and cardiac puncture performed. Blood counts and erythrocyte indices were measured using a Sysmex Blood Counter (Prince of Wales Hospital, Sydney, Australia). Mouse body weight changes during the treatment period were recorded. The tumours were weighed and fixed for histological examination. The experimental groups consisted of eight mice for the control and each treatment (Table 5).
As a relevant positive control, animals were administered Triapine® at its MTD (6 mg/kg). The tumour weight was measured on the twelfth day after the tumour cell implantation.

intracellular ROS = experiment: Intracellular ROS assay (DCF-DA, flow cytometry), M109 cells; type: cell-based, mouse; settings: 1 μM
Procedure: Intracellular ROS generation was assessed using the cell-permeable dye 2′,7′-dichlorofluorescein-diacetate (DCF-DA) (Sigma). DCF-DA readily diffuses into cells and becomes highly fluorescent when oxidised by O2^•−, H2O2, or OH^−.^29 Cellular fluorescence intensity is directly proportional to the level of intracellular ROS.^29 M109 cells (1×10^5 cells/well) were incubated with or without 1 μM Dp44mT for 0-48 h or 50 μM H2O2 (positive control) for 10 min at 37° C. The cells were then incubated with DCF-DA (5 μM) for 20 min at 37° C., washed twice, and detached from the culture plates. The fluorescence of oxidised DCF in cells was measured using flow cytometry.^29)
To test whether induction of h-cytc release from the mitochondrion (FIG. 15A) and the imbalance of Bcl-2/Bax expression (FIG. 15B) was due to the presence of ROS, intracellular ROS were measured by flow cytometry using the DCFH-DA probe which becomes fluorescent when oxidised by O2^•−, H2O2, or OH^−.^29 Incubation of M109 cells with Dp44mT (1 μM) increased the levels of oxidised probe as a function of time. After 2 h, a 25±10% increase in oxidised DCFH-DA fluorescence was found compared to the 0 h time point, and this increased to 486±96% after 48 h (FIG. 15C). For comparison, a 10 min incubation with the positive control, H2O2 (50 μM), increased fluorescence to 1312±46% of the 0 h time point (FIG. 15C)

[2] = tested on: SK-N-MC neuroepithelioma cells; experiment: 3H-leucine incorporation by SK-N-MC cells; type: cell-based, human; settings: 20 h incubation then 2 h label; Mean ± SD, 4 experiments
Procedure: (§1) After a 20 h incubation of the SK-N-MC cells with a selection of analogues, ^3H-thymidine, ^3H-leucine, or ^3H-uridine (1 μCi/ml) was added for 2 h at 37° C. The cells were detached from the 96 well plate using 1 mM EDTA in Ca(II)/Mg(II)-free PBS and collected and washed using a cell harvester (Tomtec Harvester 96, Linbrook, Queensland, Australia). Radioactivity was measured on a P-scintillation counter (LKB Wallace, Turku, Finland).

[3] = tested on: iron regulatory proteins (IRPs); experiment: IRP-RNA-binding activity, gel-retardation assay, SK-N-MC cells; type: cell-based, human; settings: DFO 100 μM, FAC 100 μg/ml, other chelators 25 μM, 20 h (FIG. 8)
Procedure: The IRP-RNA-binding activity was then assessed by the gel-retardation assay. Aliquots of cell lysate containing 2 μg of protein were incubated with 0.1 ng (approximately 1×10^5 cpm) of ^32P-labelled riboprobe for 30 min at room temperature. Using this protocol the level of RNA added was saturating. Unprotected probe was degraded by incubation with 1 U of RNAse T1 for 10 min at room temperature. Heparin (5 mg/ml) was then added for another 10 min to exclude non-specific binding. The IRE-protein complexes were analyzed on 6% non-denaturing polyacrylamide gels. In parallel experiments, samples were treated with ferricyanide (FeCN, 5 mM) and 0.5% β-mercaptoethanol (β-ME), prior to addition of the IRE probe. This procedure results in the conversion of IRP1, whether spontaneously active or not, into an active IRE-binding form.^22

[4] = tested on: SK-N-MC neuroepithelioma cells; experiment: 3H-thymidine incorporation by SK-N-MC cells; type: cell-based, human; settings: 20 h incubation then 2 h label; Mean ± SD, 4 experiments
Procedure: as §1

[5] = tested on: SK-N-MC neuroepithelioma cells; experiment: 3H-uridine incorporation by SK-N-MC cells; type: cell-based, human; settings: 20 h incubation then 2 h label; Mean ± SD, 3 experiments
Procedure: as §1

CN(C)C(=S)NN=C(c1ccccn1)c1ccccn1 [Dp44mT, di-2-pyridylketone 4,4-dimethyl-3-thiosemicarbazone]
caspase-9 protein level (active caspase-9; 2 h): 171 % of the control
caspase-9 protein level (active caspase-9; 6 h): 280 % of the control
caspase-9 protein level (active caspase-9; 12 h): 280 % of the control
caspase-9 protein level (active caspase-9; 24 h): about 4 fold that of control cells
caspase-9 protein level (active caspase-9; 48 h): greater than 10 fold that of control cells
maximum tolerated dose (MTD) [1]: 0.4 mg/kg
caspase-8 activity (caspase-8; 12 h): 299 % of the control
caspase-8 activity (plateau) (caspase-8; after 24 h): 400-600 % of the control
tumour weight (M109 lung carcinoma): 47 % of control
increase in oxidised DCFH-DA fluorescence compared to the 0 h time point (intracellular ROS; 2 h): 25±10%
oxidised DCFH-DA fluorescence (increased to) (intracellular ROS; 48 h): 486±96%

CC(=O)N(O)CCCCCNC(=O)CCC(=O)N(O)CCCCCNC(=O)CCC(=O)N(O)CCCCCN [DFO, desferrioxamine]
3H-Leucine Incorporation [2]: 9 ± 1 % Control
IRP-RNA binding activity [3]: increase
3H-Thymidine Incorporation [4]: 29 ± 13 % Control and 29 + 13 % Control
3H-Uridine Incorporation [5]: 34 ± 5 % Control

Reference: patent publication US20060252798A1, “Metal ion chelators and therapeutic use thereof” (priority 2003, published 2006)
